Key:
Format in all cases: in vivo
[1] = test system: redroot pigweed (Amaranthus retroflexus, AMR); experiment: Pre-emerge test, redroot pigweed; conditions: 250 g ai/ha, 14 days after application, rating scale 0-100 (0 no damage, 100 complete death)
Summary of the method: (§1)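 Sandy loam soil mix, 10 cm pots, sowing 1 d before treatment; spray volume 187 l/ha, rates 8–1000 g ai/ha in acetone; 0–100 visual rating at 14 d.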

[2] = test system: velvetleaf (Abutilon theophrasti, ABT); experiment: Pre-emerge test, velvetleaf; conditions: 250 g ai/ha, 14 days after application, rating scale 0-100 (0 no damage, 100 complete death)
Summary of the method: as §1

[3] = test system: sicklepod (Cassia obtusifolia, CAO); experiment: Pre-emerge test, sicklepod; conditions: 250 g ai/ha, 14 days after application, rating scale 0-100 (0 no damage, 100 complete death)
Summary of the method: as §1

[4] = test system: ivyleaf morningglory (Ipomoea hederacea, IPH); experiment: Pre-emerge test, ivyleaf morningglory; conditions: 250 g ai/ha, 14 days after application, rating scale 0-100 (0 no damage, 100 complete death)
Summary of the method: as §1

[5] = test system: lambsquarters (Chenopodium album, CHA); experiment: Pre-emerge test, lambsquarters; conditions: 250 g ai/ha, 14 days after application, rating scale 0-100 (0 no damage, 100 complete death)
Summary of the method: as §1

[6] = test system: common ragweed (Ambrosia artemisiifolia L., AML); experiment: Pre-emerge test, common ragweed; conditions: 250 g ai/ha, 14 days after application, rating scale 0-100 (0 no damage, 100 complete death)
Summary of the method: as §1

[7] = test system: cocklebur (Xanthium strumariunt, XAS); experiment: Pre-emerge test, cocklebur; conditions: 250 g ai/ha, 14 days after application, rating scale 0-100 (0 no damage, 100 complete death)
Summary of the method: as §1

[8] = test system: green foxtail (Setaria viridis, SEV); experiment: Pre-emerge test, green foxtail; conditions: 250 g ai/ha, 14 days after application, rating scale 0-100 (0 no damage, 100 complete death)
Summary of the method: as §1

[9] = test system: barnyardgrass (Echinachloa crus-galli, ECC); experiment: Pre-emerge test, barnyardgrass; conditions: 250 g ai/ha, 14 days after application, rating scale 0-100 (0 no damage, 100 complete death)
Summary of the method: as §1

[10] = test system: johnsongrass (Sorghum halepense, SOH); experiment: Pre-emerge test, johnsongrass; conditions: 250 g ai/ha, 14 days after application, rating scale 0-100 (0 no damage, 100 complete death)
Summary of the method: as §1

[11] = test system: large crabgrass (Digitaria sanguinalis, DIS); experiment: Pre-emerge test, large crabgrass; conditions: 250 g ai/ha, 14 days after application, rating scale 0-100 (0 no damage, 100 complete death)
Summary of the method: as §1

[12] = test system: field corn (Zea mays L., var. Dekalb 535, CORN); experiment: Pre-emerge test, crop damage field corn
Summary of the method: (§2)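 Pots (10 cm, sandy loam mix) were seeded one day ahead of spraying. Test materials, dissolved in acetone, went on at 8–1000 g ai/ha in a 187 l/ha spray volume. Damage was scored 14 days later from 0 (none) to 100 (total kill).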

[13] = test system: soybean (Glycine max L., var. Pella 86, SOY); experiment: Pre-emerge test, crop damage soybean
Summary of the method: as §2

[14] = test system: upland rice (Oryza sp., var.Tebonnet, RICE); experiment: Pre-emerge test, crop damage upland rice
Summary of the method: as §2

[15] = test system: wheat (Triticum aestivum); experiment: Pre-emerge test, crop damage wheat
Summary of the method: as §2

[16] = test system: redroot pigweed (Amaranthus retroflexus, AMR); experiment: Post-emerge test, redroot pigweed; conditions: 250 g ai/ha, 14 days after application, rating scale 0-100 (0 no damage, 100 complete death)
Summary of the method: (§3)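 Each score is a 0-100 visual rating made 14 days post-spray, with 100 meaning all plants dead. Application was post-emergence at the 2-3 leaf stage, 8-1000 g ai/ha in acetone plus 0.25% v/v surfactant.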

[17] = test system: velvetleaf (Abutilon theophrasti, ABT); experiment: Post-emerge test, velvetleaf; conditions: 250 g ai/ha, 14 days after application, rating scale 0-100 (0 no damage, 100 complete death)
Summary of the method: as §3

[18] = test system: sicklepod (Cassia obtusifolia, CAO); experiment: Post-emerge test, sicklepod; conditions: 250 g ai/ha, 14 days after application, rating scale 0-100 (0 no damage, 100 complete death)
Summary of the method: as §3

[19] = test system: ivyleaf morningglory (Ipomoea hederacea, IPH); experiment: Post-emerge test, ivyleaf morningglory; conditions: 250 g ai/ha, 14 days after application, rating scale 0-100 (0 no damage, 100 complete death)
Summary of the method: as §3

[20] = test system: lambsquarters (Chenopodium album, CHA); experiment: Post-emerge test, lambsquarters; conditions: 250 g ai/ha, 14 days after application, rating scale 0-100 (0 no damage, 100 complete death)
Summary of the method: as §3

[21] = test system: common ragweed (Ambrosia artemisiifolia L., AML); experiment: Post-emerge test, common ragweed; conditions: 250 g ai/ha, 14 days after application, rating scale 0-100 (0 no damage, 100 complete death)
Summary of the method: as §3

[22] = test system: cocklebur (Xanthium strumariunt, XAS); experiment: Post-emerge test, cocklebur; conditions: 250 g ai/ha, 14 days after application, rating scale 0-100 (0 no damage, 100 complete death)
Summary of the method: as §3

[23] = test system: green foxtail (Setaria viridis, SEV); experiment: Post-emerge test, green foxtail; conditions: 250 g ai/ha, 14 days after application, rating scale 0-100 (0 no damage, 100 complete death)
Summary of the method: as §3

[24] = test system: barnyardgrass (Echinachloa crus-galli, ECC); experiment: Post-emerge test, barnyardgrass; conditions: 250 g ai/ha, 14 days after application, rating scale 0-100 (0 no damage, 100 complete death)
Summary of the method: as §3

[25] = test system: johnsongrass (Sorghum halepense, SOH); experiment: Post-emerge test, johnsongrass; conditions: 250 g ai/ha, 14 days after application, rating scale 0-100 (0 no damage, 100 complete death)
Summary of the method: as §3

[26] = test system: large crabgrass (Digitaria sanguinalis, DIS); experiment: Post-emerge test, large crabgrass; conditions: 250 g ai/ha, 14 days after application, rating scale 0-100 (0 no damage, 100 complete death)
Summary of the method: as §3

[27] = test system: field corn (Zea mays L., var. Dekalb 535, CORN); experiment: Post-emerge test, crop damage field corn
Summary of the method: as §3

[28] = test system: soybean (Glycine max L., var. Pella 86, SOY); experiment: Post-emerge test, crop damage soybean
Summary of the method: as §3

[29] = test system: upland rice (Oryza sp., var.Tebonnet, RICE); experiment: Post-emerge test, crop damage upland rice
Summary of the method: as §3

[30] = test system: wheat (Triticum aestivum); experiment: Post-emerge test, crop damage wheat
Summary of the method: as §3

[31] = pre-emerge, 250 g ai/ha, 14 days after application, rating scale 0-100 (0 no damage, 100 complete death)
[32] = post-emerge, 250 g ai/ha, 14 days after application, rating scale 0-100 (0 no damage, 100 complete death)
[33] = var. Dekalb 535, Zea mays (field corn), in vivo, 14 days
[34] = var. Pella 86, Glycine max (soybean), in vivo, 14 days
[35] = var. Tebonnet, Oryza sp. (upland rice), in vivo, 14 days
[36] = Triticum aestivum (wheat), in vivo, 14 days

| Structure (SMILES) | Pre-emerge Herbicidal Activity AMR (phytotoxicity rating) [1] | Pre-emerge Herbicidal Activity ABT (phytotoxicity rating) [2] | Pre-emerge Herbicidal Activity CAO (phytotoxicity rating) [3] | Pre-emerge Herbicidal Activity IPH (phytotoxicity rating) [4] | Pre-emerge Herbicidal Activity CHA (phytotoxicity rating) [5] | Pre-emerge Herbicidal Activity AML (phytotoxicity rating) [6] | Pre-emerge Herbicidal Activity XAS (phytotoxicity rating) [7] | Pre-emerge Herbicidal Activity SEV (phytotoxicity rating) [8] | Pre-emerge Herbicidal Activity ECC (phytotoxicity rating) [9] | Pre-emerge Herbicidal Activity SOH (phytotoxicity rating) [10] | Pre-emerge Herbicidal Activity DIS (phytotoxicity rating) [11] | Post-emerge Herbicidal Activity AMR (phytotoxicity rating) [16] | Post-emerge Herbicidal Activity ABT (phytotoxicity rating) [17] | Post-emerge Herbicidal Activity CAO (phytotoxicity rating) [18] | Post-emerge Herbicidal Activity IPH (phytotoxicity rating) [19] | Post-emerge Herbicidal Activity CHA (phytotoxicity rating) [20] | Post-emerge Herbicidal Activity AML (phytotoxicity rating) [21] | Post-emerge Herbicidal Activity XAS (phytotoxicity rating) [22] | Post-emerge Herbicidal Activity SEV (phytotoxicity rating) [23] | Post-emerge Herbicidal Activity ECC (phytotoxicity rating) [24] | other results |
| --- | --- | --- | --- | --- | --- | --- | --- | --- | --- | --- | --- | --- | --- | --- | --- | --- | --- | --- | --- | --- | --- |
| CCC1C(=O)Nc2c(-c3ncc(C(F)(F)F)cc3Cl)c(F)cc3c2N1C(=O)CO3 (stereo not drawn) [1-66] | 100 | 100 | 98 | 100 | 100 | 100 | 50 | 100 | 100 | 100 | 100 | 100 | 100 | 75 | 100 | 100 | 80 | 100 | 98 | 100 | Pre-emerge crop damage CORN (phytotoxicity rating) [12, 31]: 95; Pre-emerge crop damage SOY (phytotoxicity rating) [13, 31]: 35; Pre-emerge crop damage RICE (phytotoxicity rating) [14, 31]: 85; Pre-emerge crop damage WHEAT (phytotoxicity rating) [15, 31]: 50; Post-emerge Herbicidal Activity SOH (phytotoxicity rating) [25]: 75; Post-emerge Herbicidal Activity DIS (phytotoxicity rating) [26]: 95; Post-emerge crop damage CORN (phytotoxicity rating) [27, 32]: 10; Post-emerge crop damage SOY (phytotoxicity rating) [28, 32]: 100; Post-emerge crop damage RICE (phytotoxicity rating) [29, 32]: 100; Post-emerge crop damage WHEAT (phytotoxicity rating) [30, 32]: 30 |
| Cc1nn(-c2c(F)cc3c4c2NC(=O)C(C)N4C(=O)CO3)c(=O)n1C(F)F (stereo not drawn) [1-74] | 98 | 100 | 75 | 95 | 99 | 80 | 98 | 100 | 98 | 99 | 99 | 60 | 55 | 0 | 0 | 65 | 55 | 10 | 65 | 0 | Pre-emerge crop damage CORN (phytotoxicity rating) [12, 31]: 100; Pre-emerge crop damage SOY (phytotoxicity rating) [13, 31]: 95; Pre-emerge crop damage RICE (phytotoxicity rating) [14, 31]: 99; Pre-emerge crop damage WHEAT (phytotoxicity rating) [15, 31]: 98; Post-emerge Herbicidal Activity SOH (phytotoxicity rating) [25]: 0; Post-emerge Herbicidal Activity DIS (phytotoxicity rating) [26]: 0; Post-emerge crop damage CORN (phytotoxicity rating) [27, 32]: 0; Post-emerge crop damage SOY (phytotoxicity rating) [28, 32]: 0; Post-emerge crop damage RICE (phytotoxicity rating) [29, 32]: 0; Post-emerge crop damage WHEAT (phytotoxicity rating) [30, 32]: 0 |
| CCC1C(=O)Nc2c3c(cc(F)c2-n2nc(C)n(C(F)F)c2=O)OCC(=O)N31 (stereo not drawn) [1-75] | 50 | 100 | 65 | 99 | 100 | 85 | 85 | 99 | 100 | 100 | 100 | 0 | 90 | 0 | 80 | 80 | 45 | 20 | 0 | 0 | Pre-emerge crop damage CORN (phytotoxicity rating) [12, 31]: 100; Pre-emerge crop damage SOY (phytotoxicity rating) [13, 31]: 98; Pre-emerge crop damage RICE (phytotoxicity rating) [14, 31]: 99; Pre-emerge crop damage WHEAT (phytotoxicity rating) [15, 31]: 10; Post-emerge Herbicidal Activity SOH (phytotoxicity rating) [25]: 0; Post-emerge Herbicidal Activity DIS (phytotoxicity rating) [26]: 0; Post-emerge crop damage CORN (phytotoxicity rating) [27, 32]: 0; Post-emerge crop damage SOY (phytotoxicity rating) [28, 32]: 55; Post-emerge crop damage RICE (phytotoxicity rating) [29, 32]: 40; Post-emerge crop damage WHEAT (phytotoxicity rating) [30, 32]: 0 |
| Cn1nc(-c2c(F)cc3c4c2NC(=O)CN4C(=O)C(C)(C)O3)c(Cl)c1C(F)(F)F [1-52, 8-[4-Chloro-1-methyl-5-(trifluoromethyl)-1H-pyrazol-3-yl]-2,2-dimethyl-9-fluoro-5H-pyrazino[1,2,3-de]-1,4-benzoxazine-3,6(2H, 7H)-dione] | 100 | 100 | 97 | 95 | 100 | 98 | 85 | 90 | 85 | 100 | 80 | 100 | 100 | 50 | 70 | 100 | 60 | 75 | 0 | 50 | Pre-emerge crop damage CORN (phytotoxicity rating) [12, 33]: 50; Pre-emerge crop damage SOY (phytotoxicity rating) [13, 34]: 50; Pre-emerge crop damage RICE (phytotoxicity rating) [14, 35]: 0; Pre-emerge crop damage WHEAT (phytotoxicity rating) [15, 36]: 0; Post-emerge Herbicidal Activity SOH (phytotoxicity rating) [25]: 0; Post-emerge Herbicidal Activity DIS (phytotoxicity rating) [26]: 0; Post-emerge crop damage CORN (phytotoxicity rating) [27, 33]: 0; Post-emerge crop damage SOY (phytotoxicity rating) [28, 34]: 0; Post-emerge crop damage RICE (phytotoxicity rating) [29, 35]: 0; Post-emerge crop damage WHEAT (phytotoxicity rating) [30, 36]: 0 |
